Results on 11 molecules are retold here after patent US20090181963A1, “3H-[1,2,3]TRIAZOLO[4,5-D]PYRIMIDINE COMPOUNDS, THEIR USE AS mTOR KINASE AND PI3 KINASE INHIBITORS, AND THEIR [sequence]” (Wyeth, priority 2008, published 2009).

In one experiment the target is PI3 Kinase α (Homo sapiens, UniProt P42336). Briefly: Fluorescence polarization assay for PI3K (PI3 Kinase α). Format: biochemical. As to conditions: diC8-PI(4,5)P2 substrate, 25 μM ATP, one hour at 25° C.
The next experiment has as its target PI3 Kinase γ (Homo sapiens, UniProt P48736). Briefly: Fluorescence polarization assay for PI3K (PI3 Kinase γ). Format: biochemical. As to conditions: diC8-PI(4,5)P2 substrate, 25 μM ATP, one hour at 25° C.

SMILES strings stand for the structures.

PI3 Kinase α, sequence (P42336 whole entry): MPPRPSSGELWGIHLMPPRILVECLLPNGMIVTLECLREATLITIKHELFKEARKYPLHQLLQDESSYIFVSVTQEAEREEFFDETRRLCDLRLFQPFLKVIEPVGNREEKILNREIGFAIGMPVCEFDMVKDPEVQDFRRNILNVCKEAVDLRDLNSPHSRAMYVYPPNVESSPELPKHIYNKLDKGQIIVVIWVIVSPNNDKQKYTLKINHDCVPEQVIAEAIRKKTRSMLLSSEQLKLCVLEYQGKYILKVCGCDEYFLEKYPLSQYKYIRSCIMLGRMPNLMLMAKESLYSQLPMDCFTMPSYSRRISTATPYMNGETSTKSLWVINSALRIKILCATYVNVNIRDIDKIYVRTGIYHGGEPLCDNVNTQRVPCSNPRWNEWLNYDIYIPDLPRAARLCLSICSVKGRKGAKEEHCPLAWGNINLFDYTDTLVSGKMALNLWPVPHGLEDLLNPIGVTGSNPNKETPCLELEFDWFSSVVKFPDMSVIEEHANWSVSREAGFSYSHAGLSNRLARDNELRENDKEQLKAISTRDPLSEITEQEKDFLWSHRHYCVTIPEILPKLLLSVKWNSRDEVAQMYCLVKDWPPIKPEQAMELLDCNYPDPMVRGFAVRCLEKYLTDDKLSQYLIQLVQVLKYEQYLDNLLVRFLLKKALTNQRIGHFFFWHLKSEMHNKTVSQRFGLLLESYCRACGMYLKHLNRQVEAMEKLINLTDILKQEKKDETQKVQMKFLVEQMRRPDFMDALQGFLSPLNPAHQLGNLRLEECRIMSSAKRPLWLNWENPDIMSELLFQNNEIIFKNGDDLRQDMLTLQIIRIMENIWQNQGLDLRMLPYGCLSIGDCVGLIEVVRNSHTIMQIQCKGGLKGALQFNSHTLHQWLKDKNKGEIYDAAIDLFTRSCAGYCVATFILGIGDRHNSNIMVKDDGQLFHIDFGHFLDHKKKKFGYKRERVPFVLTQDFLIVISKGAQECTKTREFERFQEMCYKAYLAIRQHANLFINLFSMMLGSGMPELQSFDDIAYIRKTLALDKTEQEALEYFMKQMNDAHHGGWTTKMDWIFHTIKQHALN
PI3 Kinase α, sequence (P27986 whole entry partner): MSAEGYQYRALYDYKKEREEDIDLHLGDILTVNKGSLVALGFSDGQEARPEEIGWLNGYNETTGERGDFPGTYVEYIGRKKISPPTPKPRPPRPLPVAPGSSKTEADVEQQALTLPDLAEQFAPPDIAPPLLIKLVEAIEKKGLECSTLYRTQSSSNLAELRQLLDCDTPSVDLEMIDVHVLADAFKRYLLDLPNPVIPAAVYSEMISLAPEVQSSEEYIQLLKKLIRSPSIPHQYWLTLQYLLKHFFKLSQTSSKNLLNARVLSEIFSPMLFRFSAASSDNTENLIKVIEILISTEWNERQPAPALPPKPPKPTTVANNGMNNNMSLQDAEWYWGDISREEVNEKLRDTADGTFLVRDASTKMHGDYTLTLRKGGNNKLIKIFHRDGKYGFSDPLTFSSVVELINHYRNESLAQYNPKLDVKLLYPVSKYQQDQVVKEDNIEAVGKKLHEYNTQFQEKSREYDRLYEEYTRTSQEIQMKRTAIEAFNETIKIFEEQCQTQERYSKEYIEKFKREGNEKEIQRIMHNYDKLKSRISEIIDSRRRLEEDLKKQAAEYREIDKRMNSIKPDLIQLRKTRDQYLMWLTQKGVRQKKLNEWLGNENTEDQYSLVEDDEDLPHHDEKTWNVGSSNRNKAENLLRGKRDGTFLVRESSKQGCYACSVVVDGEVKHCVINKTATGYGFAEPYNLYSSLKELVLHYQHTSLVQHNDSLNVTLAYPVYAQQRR
PI3 Kinase γ, sequence (P48736 whole entry): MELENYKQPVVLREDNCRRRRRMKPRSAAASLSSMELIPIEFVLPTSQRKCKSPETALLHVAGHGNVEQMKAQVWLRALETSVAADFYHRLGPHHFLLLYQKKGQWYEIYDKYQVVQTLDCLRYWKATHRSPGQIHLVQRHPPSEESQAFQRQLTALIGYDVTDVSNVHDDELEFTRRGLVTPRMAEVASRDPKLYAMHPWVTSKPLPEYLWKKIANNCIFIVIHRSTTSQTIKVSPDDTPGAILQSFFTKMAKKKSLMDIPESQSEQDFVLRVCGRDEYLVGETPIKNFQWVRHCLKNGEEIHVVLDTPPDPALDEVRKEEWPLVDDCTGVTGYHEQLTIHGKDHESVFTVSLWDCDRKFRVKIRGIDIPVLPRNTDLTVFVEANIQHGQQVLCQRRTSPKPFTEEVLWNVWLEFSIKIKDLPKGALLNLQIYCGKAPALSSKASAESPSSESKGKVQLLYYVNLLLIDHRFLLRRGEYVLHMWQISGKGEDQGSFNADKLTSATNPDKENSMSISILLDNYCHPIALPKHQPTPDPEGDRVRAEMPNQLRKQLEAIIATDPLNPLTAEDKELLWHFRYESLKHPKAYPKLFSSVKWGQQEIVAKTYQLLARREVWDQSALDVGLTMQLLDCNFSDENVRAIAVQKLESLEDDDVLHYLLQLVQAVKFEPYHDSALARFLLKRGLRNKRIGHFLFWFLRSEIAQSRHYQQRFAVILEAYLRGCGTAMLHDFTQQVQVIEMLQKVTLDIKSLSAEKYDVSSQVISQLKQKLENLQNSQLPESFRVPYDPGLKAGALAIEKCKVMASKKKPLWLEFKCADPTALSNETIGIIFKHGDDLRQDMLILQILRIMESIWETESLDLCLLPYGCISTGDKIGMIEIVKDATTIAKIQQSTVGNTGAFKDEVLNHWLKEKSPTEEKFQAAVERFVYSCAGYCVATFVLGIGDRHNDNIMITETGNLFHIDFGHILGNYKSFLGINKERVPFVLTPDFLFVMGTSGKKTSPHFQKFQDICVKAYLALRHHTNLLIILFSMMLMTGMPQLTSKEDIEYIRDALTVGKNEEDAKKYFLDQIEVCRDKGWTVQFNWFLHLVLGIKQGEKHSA
Procedure for PI3 Kinase α: Nunc 384 well black polypropylene fluorescent plates were used for PI3K assays. Reactions were quenched by the addition of EDTA to a final concentration of 10 μM. Final reaction volumes were 10 ml. […] Reactions were allowed to proceed for one hour at 25° C. After I hour, GST-tagged GRP1 (general receptor for phosphoinositides) PH domain fusion protein was added to a final concentration of 100 nM, and BODIPY-TMRI(1,3,4,5)P4 (Echelon) was also added to a final concentration of 5 nM. Final sample volumes were 25 μl with a final DMSO concentration of 0.8%. Assay Plates were read on PerkinElmer Envision plate readers with appropriate filters for Tamra [BODIPY-TMRI(1,3,4,5)P4]. Data obtained were used to calculate enzymatic activity and enzyme inhibition by inhibitor compounds.

On to `CC(C)(C)OC(=O)NC1CCN(C(=O)c2ccc(Cn3nnc4c(N5CCOCC5)nc(-c5cccc(O)c5)nc43)cc2)CC1` [Example 209, tert-butyl [1-(4-{[5-(3-hydroxyphenyl)-7-morpholin-4-yl-3H-[1,2,3]triazolo[4,5-d]pyrimidin-3-yl]methyl}benzoyl)piperidin-4-yl]carbamate], for which the values for the half-maximal inhibitory concentration (IC50) against PI3 Kinase α and on PI3 Kinase γ were 447 nM and 1670 nM, respectively.

Turning to `CCn1nnc2c(N3CCOCC3)nc(-c3ccc(NC(=O)Nc4ccc(C(=O)N(C)CCN(C)C)cc4)cc3)nc21` [Example 45, N-[2-(dimethylamino)ethyl]-4-({[4-(3-ethyl-7-morpholin-4-yl-3H-[1,2,3]triazolo[4,5-d]pyrimidin-5-yl)phenyl]carbamoyl}amino)-N-methylbenzamide], the IC50 (in general, the concentration needed to halve the response being measured) on PI3 Kinase α was below 2.2 nM; on PI3 Kinase γ, 11.3 nM.

On to `O=C(Nc1ccccc1)Nc1ccc(-c2nc(N3CCOCC3)c3nnn(CCO)c3n2)cc1` [Example 186, 1-{4-[3-(2-hydroxyethyl)-7-morpholin-4-yl-3H-[1,2,3]triazolo[4,5-d]pyrimidin-5-yl]phenyl}-3-phenylurea], for which the IC50 was 4.7 nM against PI3 Kinase α and 22 nM at PI3 Kinase γ.

With `Oc1cccc(-c2nc(N3CCOCC3)c3nnn(C4CN(Cc5ccc(F)nc5)C4)c3n2)c1` [Example 128, 3-(3-{1-[(6-fluoropyridin-3-yl)methyl]azetidin-3-yl}-7-morpholin-4-yl-3H-[1,2,3]triazolo[4,5-d]pyrimidin-5-yl)phenol], the IC50 stood at 164 nM at PI3 Kinase α and 1100 nM against PI3 Kinase γ.

Take `Oc1cncc(-c2nc(N3CCOCC3)c3nnn(C4CCN(Cc5cncc(Br)c5)CC4)c3n2)c1` [Example 16, 5-(3-{1-[(5-bromopyridin-3-yl)methyl]piperidin-4-yl}-7-morpholin-4-yl-3H-[1,2,3]triazolo[4,5-d]pyrimidin-5-yl)pyridin-3-ol]: the IC50 against PI3 Kinase α turned out to be 61 nM; against PI3 Kinase γ, 161 nM.

With `O=C(Nc1cccnc1)c1ccc(Cn2nnc3c(N4CCOCC4)nc(-c4cccc(O)c4)nc32)cc1` [Example 216, 4-{[5-(3-hydroxyphenyl)-7-morpholin-4-yl-3H-[1,2,3]triazolo[4,5-d]pyrimidin-3-yl]methyl}-N-pyridin-3-ylbenzamide], the IC50 was 58 nM against PI3 Kinase α and 361 nM on PI3 Kinase γ.

Consider `COC(Cn1nnc2c(N3CCOCC3)nc(-c3ccc(NC(=O)Nc4cccnc4)cc3)nc21)OC` [Example 181, 1-{4-[3-(2,2-dimethoxyethyl)-7-morpholin-4-yl-3H-[1,2,3]triazolo[4,5-d]pyrimidin-5-yl]phenyl}-3-pyridin-3-ylurea], for which the figures for the 50% inhibitory concentration (IC50) on PI3 Kinase α and on PI3 Kinase γ were 58.5 nM and 186 nM, respectively.

For the molecule `CC(C)(C)OC(=O)N1CCC(n2nnc3c(N4CCOCC4)nc(-c4ccc(NC(=O)Nc5ccncc5)cc4)nc32)CC1` [Example 166, tert-butyl 4-(7-morpholin-4-yl-5-{4-[(pyridin-4-ylcarbamoyl)amino]phenyl}-3H-[1,2,3]triazolo[4,5-d]pyrimidin-3-yl)piperidine-1-carboxylate], the IC50 on PI3 Kinase α was 36.5 nM; on PI3 Kinase γ, 494 nM.

For `Oc1cccc(-c2nc(N3CCOCC3)c3nnn(C4CN(Cc5ccccc5)C4)c3n2)c1` [Example 127, 3-[3-(1-benzylazetidin-3-yl)-7-morpholin-4-yl-3H-[1,2,3]triazolo[4,5-d]pyrimidin-5-yl]phenol], the half-inhibitory concentration (IC50) against PI3 Kinase α was determined as 134 nM; against PI3 Kinase γ, 1240 nM.

Consider `Oc1cccc(-c2nc(N3CCOCC3)c3nnn(C4CCNCC4)c3n2)c1` [Example 144, 3-(7-morpholin-4-yl-3-piperidin-4-yl-3H-[1,2,3]triazolo[4,5-d]pyrimidin-5-yl)phenol], for which the 50% inhibitory concentration (IC50) was found to be 81.5 nM against PI3 Kinase α and 406 nM at PI3 Kinase γ.

Regarding `CNCCNC(=O)Nc1ccc(-c2nc(N3CCOCC3)c3nnn(CC(F)(F)F)c3n2)cc1` [Example 140, 1-[2-(methylamino)ethyl]-3-{4-[7-morpholin-4-yl-3-(2,2,2-trifluoroethyl)-3H-[1,2,3]triazolo[4,5-d]pyrimidin-5-yl]phenyl}urea], the IC50 at PI3 Kinase α came out at 26.5 nM; against PI3 Kinase γ it was 118 nM.
